Here are results for 1 molecule from PMC3878625, “Inhibitory effects of grape skin extract and resveratrol on fatty acid synthase” (BMC Complementary and Alternative Medicine, 2013).

The assay concerns the target T1, Fatty acid synthase (FAS) (Gallus gallus, UniProt P12276).
T1 construct: gene FASN; FAS purified from chicken liver
Briefly: spectrophotometric NADPH oxidation assay ([…] nm) of purified FAS, overall and KR reactions; time-dependent inhibition and Lineweaver-Burk kinetics. Type of assay: biochemical.

The structures appear in SMILES notation.

T1 sequence (P12276 2-2512): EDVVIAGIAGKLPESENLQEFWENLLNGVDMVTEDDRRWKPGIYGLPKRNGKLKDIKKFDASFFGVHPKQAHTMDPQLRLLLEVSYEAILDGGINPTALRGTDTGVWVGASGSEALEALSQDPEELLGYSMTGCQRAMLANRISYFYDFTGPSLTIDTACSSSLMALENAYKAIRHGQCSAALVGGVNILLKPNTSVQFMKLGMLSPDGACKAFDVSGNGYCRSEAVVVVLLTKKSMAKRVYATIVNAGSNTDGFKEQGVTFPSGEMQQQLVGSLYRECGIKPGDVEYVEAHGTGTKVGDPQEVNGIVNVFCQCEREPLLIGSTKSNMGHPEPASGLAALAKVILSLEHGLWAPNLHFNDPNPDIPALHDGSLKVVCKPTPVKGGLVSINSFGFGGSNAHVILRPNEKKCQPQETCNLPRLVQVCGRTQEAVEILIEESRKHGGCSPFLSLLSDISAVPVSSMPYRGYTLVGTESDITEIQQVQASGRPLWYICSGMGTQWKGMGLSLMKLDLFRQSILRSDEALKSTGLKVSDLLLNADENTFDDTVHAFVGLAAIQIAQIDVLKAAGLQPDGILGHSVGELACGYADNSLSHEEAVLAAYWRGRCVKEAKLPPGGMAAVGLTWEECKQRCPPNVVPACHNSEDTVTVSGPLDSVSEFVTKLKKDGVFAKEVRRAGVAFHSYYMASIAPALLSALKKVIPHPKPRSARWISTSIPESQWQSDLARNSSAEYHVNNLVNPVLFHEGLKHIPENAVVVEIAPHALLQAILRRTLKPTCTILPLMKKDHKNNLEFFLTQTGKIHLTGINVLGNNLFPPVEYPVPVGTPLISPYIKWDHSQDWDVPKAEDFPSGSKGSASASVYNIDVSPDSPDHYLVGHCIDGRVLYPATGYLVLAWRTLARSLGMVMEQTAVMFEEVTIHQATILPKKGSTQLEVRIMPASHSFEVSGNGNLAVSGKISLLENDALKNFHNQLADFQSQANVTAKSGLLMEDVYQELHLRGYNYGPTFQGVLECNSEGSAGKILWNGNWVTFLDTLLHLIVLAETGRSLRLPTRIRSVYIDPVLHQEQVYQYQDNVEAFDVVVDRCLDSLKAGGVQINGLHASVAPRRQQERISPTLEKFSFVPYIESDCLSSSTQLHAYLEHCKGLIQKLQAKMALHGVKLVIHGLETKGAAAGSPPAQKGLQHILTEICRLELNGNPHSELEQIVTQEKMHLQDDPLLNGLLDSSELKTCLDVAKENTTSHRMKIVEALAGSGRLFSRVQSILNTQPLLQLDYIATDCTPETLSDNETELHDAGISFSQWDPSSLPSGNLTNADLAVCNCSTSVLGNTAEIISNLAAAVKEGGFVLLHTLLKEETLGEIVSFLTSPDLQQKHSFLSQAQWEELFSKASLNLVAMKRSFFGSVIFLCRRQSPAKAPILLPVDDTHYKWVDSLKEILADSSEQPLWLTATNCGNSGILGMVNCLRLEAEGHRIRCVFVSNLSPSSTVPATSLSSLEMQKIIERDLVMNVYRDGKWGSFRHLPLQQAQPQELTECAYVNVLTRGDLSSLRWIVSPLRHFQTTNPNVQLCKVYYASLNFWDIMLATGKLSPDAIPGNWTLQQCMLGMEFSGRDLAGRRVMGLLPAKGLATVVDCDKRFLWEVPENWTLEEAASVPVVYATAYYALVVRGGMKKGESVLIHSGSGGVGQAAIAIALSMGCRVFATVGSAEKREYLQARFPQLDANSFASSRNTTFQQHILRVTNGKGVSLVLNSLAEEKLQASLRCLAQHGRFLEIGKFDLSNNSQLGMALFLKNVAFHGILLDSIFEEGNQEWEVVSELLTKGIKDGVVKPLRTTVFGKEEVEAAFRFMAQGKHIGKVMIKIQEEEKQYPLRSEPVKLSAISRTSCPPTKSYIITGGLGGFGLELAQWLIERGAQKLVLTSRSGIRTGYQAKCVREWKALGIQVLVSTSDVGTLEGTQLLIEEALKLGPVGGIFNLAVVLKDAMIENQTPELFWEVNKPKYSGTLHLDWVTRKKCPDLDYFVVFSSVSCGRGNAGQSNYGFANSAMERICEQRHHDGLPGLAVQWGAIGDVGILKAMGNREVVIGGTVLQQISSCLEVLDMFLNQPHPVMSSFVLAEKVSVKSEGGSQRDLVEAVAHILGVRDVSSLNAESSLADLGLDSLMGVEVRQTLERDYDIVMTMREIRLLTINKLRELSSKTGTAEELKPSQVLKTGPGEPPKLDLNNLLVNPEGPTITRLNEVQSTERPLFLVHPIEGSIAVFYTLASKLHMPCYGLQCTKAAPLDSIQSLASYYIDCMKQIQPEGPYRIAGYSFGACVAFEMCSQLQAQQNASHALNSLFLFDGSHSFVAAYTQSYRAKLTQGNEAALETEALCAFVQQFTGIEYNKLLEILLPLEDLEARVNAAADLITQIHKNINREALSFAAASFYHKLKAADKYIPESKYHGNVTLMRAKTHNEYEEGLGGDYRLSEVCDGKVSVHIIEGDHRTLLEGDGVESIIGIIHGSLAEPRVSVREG

Regarding `Oc1ccc(/C=C/c2cc(O)cc(O)c2)cc1` [resveratrol, 3,5,4′-trihydroxystilbene], the IC50 (in general, the concentration that gives 50% inhibition) is 48.6 µM.
